Results reported in PubChem BioAssay AID179 (DTP/NCI, 2004).
Activity calls are given as the source filed them.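 Rule for the calls: active = compounds giving half or more protection of infected cells from virus-caused growth loss, again on retest; inactive = the rest.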

System: CEM cells HIV-1 protection, formazan growth assay
Test: NCI AIDS Antiviral Assay
Details: for IC50: measured here: growth of uninfected CEM cells
Method in brief: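 Screen of anti-HIV-1 activity in human CEM cells using a formazan-based growth measurement at five drug concentrations. Hits with 50% or greater protection were repeated, and confirmation required reproducible complete protection.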

| SMILES | EC50 [µM] | IC50 [µM] | outcome |
| --- | --- | --- | --- |
| O=c1c2ccc(Cl)cc2oc2c(CNc3ccc(S(=O)(=O)Nc4nccs4)cc3)cccc12 | > 151 | > 151 | – |
| COC(=O)C1=C(C(=O)OC)C2OC1C1C2C2(C)C(C)=C(C)C1(C)S2=O (stereo not given) | > 200 | 2.82 | – |
| Clc1ccc(C2=NOC3C4CCC(C4)C23)cc1 (stereo not given) | – | – | inactive |
| NC1=NN(c2ccccc2)C(=O)C1C(=O)C(=O)Nc1nccs1 (stereo not given) | > 79.4 | > 79.4 | – |
| CCOC(=O)CNC(=O)N(CC)C12CC3CC(CC(C3)C1)C2 | > 200 | 129 | – |
| O=C(N/N=C\c1cccc(/C=N\NC(=O)Nc2ccc(N=Nc3ccccc3)cc2)n1)Nc1ccc(N=Nc2ccccc2)cc1 | > 200 | 39.8 | – |
| Nc1ccc(Sc2c3ccccc3nc3ccccc23)cc1 | > 17.4 | 9.55 | – |
| Cc1ccc(S(=O)(=O)N/N=C/c2oc(-c3cccc([N+](=O)[O-])c3)c(-c3cccc([N+](=O)[O-])c3)c2[N+](=O)[O-])cc1 | > 46.8 | > 46.8 | – |
| Cc1ccc(S(=O)(=O)NC(=O)OC23COCN2COC3)cc1 | > 759 | 132 | – |
| Cn1c(NN)nc2ccccc2c1=O | – | – | inactive |
| CCOC(=O)NP(=O)(Nc1ccc(C)cc1)Nc1ccc(C)cc1 | > 200 | > 200 | – |
| C1CN(SSN2CCOCC2)CCO1 | > 200 | 126 | – |
| CCOC(=O)C1COc2cc(-c3cc(=O)c4ccccc4o3)ccc2O1 (stereo not given) | – | – | inactive |
| O=c1n(Cl)c(=O)n(Cl)c(=O)n1Cl | – | – | inactive |
| COc1ccc2c(c1)OCC1Cc3ccccc3OC21 (stereo not given) | > 200 | 53.7 | – |
| Cn1ncc2[nH]cnc2c1=S | > 200 | 26.9 | – |
| O=C(Nc1cccc(C2=NCCN2)c1)Nc1cccc(C2=NCCN2)c1 | > 200 | 32.4 | – |
| C=CCNC(=O)NNC(O)(C(=O)OCC)C(F)(F)F (stereo not given) | > 200 | 174 | – |
| CC1=C2NCN(C)N=C2C(C#N)(C#N)C1(C#N)C#N | > 200 | 10.5 | – |
| C=C(C=O)[C@@H]1C2OC(=O)C(=C)[C@@H]2CC(O)[C@@]1(C)CC (stereo not given in full) | > 151 | 5.89 | – |
| CCOc1ccc(/C=C(\Cl)c2ccc(OC)cc2)cc1 | > 200 | > 200 | – |
| CCN1CCC(O)(c2ccc([N+](=O)[O-])cc2)C(C(=O)c2ccc([N+](=O)[O-])cc2)C1 (stereo not given) | > 200 | 33.1 | – |

| SMILES | EC50 [µM] | IC50 [µM] | outcome |
| --- | --- | --- | --- |
| C/C(=N\NC(N)=S)c1sc(-n2nc(-c3ccccc3)cc2-c2ccccc2)nc1C | > 16.6 | > 16.6 | – |
| COc1ccc(N=Nc2ccc3oc(=O)c(C(=O)Nc4ccc(Cl)cc4)cc3c2)cc1 | > 200 | 33.1 | – |
| CC1SC(C)SC(C(C)(C)O)S1 (stereo not given) | > 32.4 | > 32.4 | – |
| CCC[C@H]1C(=O)N=C(N)N1C(=O)OCc1ccccc1 | > 200 | > 200 | – |
| CN(c1ccccc1)c1nc(=[N+](C)C)ss1 | – | – | inactive |
| CC1(C)COC(c2cccc3c2C(=O)c2cccc(Cl)c2-3)=N1 | > 83.2 | 79.4 | – |
| Oc1[nH]c2ccccc2c1N=NC(=S)N1CCCCC1 | > 200 | 1.02 | – |
| Clc1ccc2c(NCCCCCCNc3ccnc4cc(Cl)ccc34)ccnc2c1 | > 14.1 | 2.4 | – |
| O=C(CCCN1CCC(O)(c2cccc(C(F)(F)F)c2)CC1)c1ccc(F)cc1 | > 302 | 53.7 | – |
| Cn1cnc([N+](=O)[O-])c1Sc1ncn[nH]1 | > 1100 | 17.8 | – |
| O=C(/N=C/c1c(O)c2ccccc2oc1=O)Nc1ccccc1 | > 17 | > 17 | – |
| C=C(C)[C@@H]1CC[C@]2(C)CC[C@@]3(C)[C@]4(C)CC[C@H]5C(C)(C)[C@@H](OC(=O)CCC(=O)O)CC[C@]5(C)[C@H]4CC[C@]3(C)[C@@H]12 | 44.7 | > 100 | – |
| CN1CCN=C1c1ccc(NC(=O)Nc2ccc(NC(=O)Nc3ccc(C4=NCCN4C)cc3)cc2)cc1 | > 200 | 38.9 | – |
| CCOC(=O)C(=O)/C(=C/N1CCNC1=S)C(=O)OCC | – | – | inactive |
| O=C1CS/C(=N/N=C/c2nc3ccccc3c(=O)n2-c2ccc(Cl)cc2)N1c1ccccc1 | > 38 | > 38 | – |
| COc1ccc(NC(=O)/C(Cc2cc(=O)oc3cc(O)ccc23)=N\NC(C)(C)C)c(OC)c1 | > 30.2 | > 30.2 | – |
| CCCCC(O)(Cc1ccccc1)c1ccc(OCCN(CC)CC)cc1 (stereo not given) | > 200 | 14.1 | – |
| COc1c(OC)c(N)c2cc(C)c(=O)c(C)cc2c1N | > 240 | 56.2 | – |
| CCO[C@H]1OC(=O)[C@@H]2C(c3ccc(F)cc3)=NO[C@H]12 | > 135 | > 135 | – |
| C=C1C(=O)c2cc3c(cc2C(c2cc(OC)c(OC)c(OC)c2)[C@@H]1C(=O)O)OCO3 (stereo not given in full) | – | – | inactive |
| CC(CNC(=O)CCC(N)C(=O)O)C(=O)O (stereo not given) | – | – | inactive |
| COC(=O)N1C[C@@]2(C=CC3(CC2)OCCO3)c2ccccc21 | > 200 | 3.55 | – |

| SMILES | EC50 [µM] | IC50 [µM] | outcome |
| --- | --- | --- | --- |
| Cc1c(OCCCOc2ccc3c(=O)cc(-c4ccccc4)oc3c2C)ccc2c(=O)cc(-c3ccccc3)oc12 | > 25.1 | > 25.1 | – |
| Cc1nc(C)c(N2CCN(S(N)(=O)=O)CC2)c(=O)[nH]1 | > 200 | > 200 | – |
| CN(C)c1ccc(-c2nn(C)c3nc(=O)n(C)c(=O)c-3[n+]2[O-])cc1 | > 200 | 0.562 | – |
| C=C1SC(=Nc2ccccc2Cl)N(C(=O)c2sc3ccccc3c2Cl)C1(C)C | > 25.1 | 11.5 | – |
| O=S(=O)(c1ccc(Cl)c(Cl)c1)c1ccc(Cl)c(Cl)c1 | > 200 | > 200 | – |
| N=C(N)SCc1ccc(N=C=S)cc1 | > 200 | 83.2 | – |
| C[C@@H]1[C@H](C)N1CC(O)Cn1ccnc1[N+](=O)[O-] (stereo not given in full) | > 200 | > 200 | – |
| Nc1ccc(S(=O)(=O)Nc2nc3ccccc3nc2Nc2ccc(S(N)(=O)=O)cc2)cc1 | > 200 | 20.4 | – |
| CC(=O)NS(=O)(=O)c1ccc(NC(=O)c2ccccc2SC(=O)c2ccccc2)cc1 | 15.1 | 117 | – |
| C=C1C(=O)OC(CCCCC)C1C(=O)O (stereo not given) | – | – | inactive |
| C(=Nc1ccc(SSc2ccc(N=Cc3ccccc3)cc2)cc1)c1ccccc1 | > 200 | 33.1 | – |
| C=C1C(OO)O[C@@H]2O[C@@]3(C)CC[C@H]4[C@H](C)CC[C@@H]1[C@@]24O3 (stereo not given in full) | > 200 | 27.5 | – |
| O=C(OC1C2OC(=O)c3cc(O)c(O)c(O)c3Oc3cc4c(c(O)c3O)-c3c(cc(O)c(O)c3O)C(=O)OCC3OC(O)C(OC(=O)c5cc(O)c(O)c(O)c5Oc5cc6c(c(O)c5O)-c5c(cc(O)c(O)c5O)C(=O)OC1C(COC6=O)OC2O)C(OC(=O)c1cc(O)c(O)c(O)c1)C3OC4=O)c1cc(O)c(O)c(O)c1 (stereo not given) | > 69.2 | 34.7 | – |
| COc1nc2n[nH]nc2c(=O)[nH]1 | – | – | inactive |
| Cc1ccc(C(=O)NC2CCCCC2)cc1N=NN(C)C | > 46.8 | 45.7 | – |
| C[C@]12CCC3[C@@H](C[C@H]4OC(=O)[C@@]35CCC(=O)C=C45)C1CCC2=O (stereo not given in full) | – | – | inactive |
| Cc1ccccc1SC(/C=C/NNC1=NC(c2ccccc2)C(c2ccccc2)=NN1)c1ccccc1 (stereo not given) | > 20 | > 20 | – |
| O=C1c2ccccc2C(=O)N1CCSCC(CO)SCCN1C(=O)c2ccccc2C1=O (stereo not given) | 191 | > 200 | – |
| CN(C)c1nc(N(C)C)nc(N(C)CN(C)c2nc(N(C)C)nc(N(C)C)n2)n1 | > 50.1 | > 50.1 | – |
| CC(=O)Nc1ccc(C(O)/C(=N/N)c2nc3ccc(Cl)cc3[nH]c2=O)cc1 (stereo not given) | > 162 | > 162 | – |
| Cc1ccc2c(n1)C(N1CCCCC1)=CC(=O)C2=O | – | – | inactive |
| CCOC(=O)C(C(=S)SC)c1nn2c(=O)cc(C)nc2s1 (stereo not given) | > 200 | 19.1 | – |

| SMILES | EC50 [µM] | IC50 [µM] | outcome |
| --- | --- | --- | --- |
| CC(=O)OC1(C)C2c3ccccc3C(c3ccccc32)C1(C)C (stereo not given) | > 85.1 | > 85.1 | – |
| COC1=C(C)C(=O)C2C(C1=O)C(c1ccc(OC)c(OC)c1)[C@H]2C (stereo not given in full) | > 151 | 135 | – |
| CC(=O)OCC1OC(N2C(C)=C(C(C)=O)C(c3ccco3)C(C#N)=C2S)C(OC(C)=O)C(OC(C)=O)C1OC(C)=O (stereo not given) | > 200 | 110 | – |
| O=C(NS(=O)(=O)Nc1ccc(Cl)cc1)OCc1ccc(Cl)cc1Cl | > 200 | 34.7 | – |
| COC(=O)C1(Cc2cccc(C)c2)Cc2c(C)cccc2C1=O (stereo not given) | > 200 | 32.4 | – |
| CC(C)(C)[Si](C)(C)OCC1OC(n2ccc(N)nc2=O)C(O[Si](C)(C)C(C)(C)C)C1O[Si](C)(C)C(C)(C)C (stereo not given) | > 200 | 10.2 | – |
| C=CCOC(=O)Cn1ccc(=O)[nH]c1=O | > 200 | > 200 | – |
| Nn1c(-c2ccccc2)n[nH]c1=O | > 200 | > 200 | – |
| Cc1cc(-c2cc(C)c(N)c(S(=O)(=O)O)c2)cc(S(=O)(=O)O)c1N | – | – | inactive |
| Cc1ccc(N=NC2=C3Sc4ccccc4N=C2N(c2ccc(Br)cc2)C(=S)N3c2ccc(Cl)cc2)cc1 | > 45.7 | > 45.7 | – |
| CC1C2CC=CC(=O)[C@@]2(C)CCC12OCCO2 (stereo not given in full) | – | – | inactive |
| c1ccc2c(c1)nnn1c3cnccc3nc21 | > 58.9 | 6.76 | – |
| CCN(CC)c1ccc(/C=C/c2n(-c3ccccc3)c3ccccc3[n+]2C)cc1 | > 2 | 0.115 | – |
| NCC(CS)C(=O)NC(CS)C(=O)NC(CS)C(=O)NCCNc1ccc(NCCNC(=O)C(CS)NC(=O)C(CS)NC(=O)C(CN)CS)c2c1C(=O)c1c(O)ccc(O)c1C2=O (stereo not given) | > 2 | 0.0126 | – |
| CC[C@H]1CN2CCc3cc(OC)c(OC)cc3[C@@H]2C[C@@H]1C[C@H]1NCCc2cc(O)c(OC)cc21 | – | – | inactive |
| COC(=O)c1ccccc1C1CN=NC12Cc1ccc(C)c(C)c1C2=O (stereo not given) | > 200 | 37.2 | – |
| COc1ccc(NC(=O)CC(=O)N2N=C(N3CCCCC3)CC2c2ccccc2)cc1 (stereo not given) | > 200 | > 200 | – |
| Cc1ccc(-c2cc(-c3ccco3)c(C#N)c(=S)[nH]2)cc1 | > 200 | 120 | – |
| Cc1c(C)[n+](=O)c2ccc(/C=[N+](/[O-])CCO)cc2n1[O-] | – | – | inactive |
| CC(C)/C(Cl)=N/OC(NC(=O)Nc1ccc(Cl)c(Cl)c1)(C(F)(F)F)C(F)(F)F | – | – | inactive |
